The values below come from ChEMBL document CHEMBL5226348, “Recent Progress of Small Molecule Menin-MLL Interaction Inhibitors as Therapeutic Agents for Acute Leukemia” (J Med Chem, 2021).

For data set [1], the system named is MV4-11. In words: Antiproliferative activity against human MV4-11 cells. The format is functional.
Data set [2] can be described thus: Oral bioavailability in mouse. Format: ADME, organism-based. As to conditions: in vivo.
Data set [3] addresses T1, Menin/Histone-lysine N-methyltransferase MLL (Homo sapiens, UniProt O00255). In words: Inhibition of human Menin to MLL protein-protein interaction. The format is protein assay.
In data set [4] the test system is MOLM-13. In words: Antiproliferative activity against human MOLM-13 cells. The format is functional.
Data set [5] concerns the target T1, Menin/Histone-lysine N-methyltransferase MLL. In words: Inhibition of Menin to MLL (unknown origin) protein-protein interaction. The format is protein assay.

T1 sequence (O00255 whole entry): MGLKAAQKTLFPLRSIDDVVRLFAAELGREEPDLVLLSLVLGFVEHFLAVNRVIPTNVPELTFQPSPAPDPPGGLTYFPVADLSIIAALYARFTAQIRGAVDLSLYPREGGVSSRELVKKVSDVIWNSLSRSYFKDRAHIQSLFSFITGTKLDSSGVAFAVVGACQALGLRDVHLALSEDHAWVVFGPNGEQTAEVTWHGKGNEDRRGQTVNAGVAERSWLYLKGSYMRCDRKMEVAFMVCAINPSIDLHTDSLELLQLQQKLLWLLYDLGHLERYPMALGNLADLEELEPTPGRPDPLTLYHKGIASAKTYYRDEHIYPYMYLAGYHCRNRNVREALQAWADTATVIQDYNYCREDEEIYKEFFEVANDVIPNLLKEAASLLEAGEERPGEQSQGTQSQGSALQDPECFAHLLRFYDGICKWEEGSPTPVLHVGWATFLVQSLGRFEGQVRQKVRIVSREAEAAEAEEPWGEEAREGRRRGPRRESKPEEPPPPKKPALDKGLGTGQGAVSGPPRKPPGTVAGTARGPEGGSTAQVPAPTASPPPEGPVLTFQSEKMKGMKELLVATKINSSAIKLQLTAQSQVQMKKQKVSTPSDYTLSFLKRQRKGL
T1 sequence (Q03164 1-2718 partner limits assumed): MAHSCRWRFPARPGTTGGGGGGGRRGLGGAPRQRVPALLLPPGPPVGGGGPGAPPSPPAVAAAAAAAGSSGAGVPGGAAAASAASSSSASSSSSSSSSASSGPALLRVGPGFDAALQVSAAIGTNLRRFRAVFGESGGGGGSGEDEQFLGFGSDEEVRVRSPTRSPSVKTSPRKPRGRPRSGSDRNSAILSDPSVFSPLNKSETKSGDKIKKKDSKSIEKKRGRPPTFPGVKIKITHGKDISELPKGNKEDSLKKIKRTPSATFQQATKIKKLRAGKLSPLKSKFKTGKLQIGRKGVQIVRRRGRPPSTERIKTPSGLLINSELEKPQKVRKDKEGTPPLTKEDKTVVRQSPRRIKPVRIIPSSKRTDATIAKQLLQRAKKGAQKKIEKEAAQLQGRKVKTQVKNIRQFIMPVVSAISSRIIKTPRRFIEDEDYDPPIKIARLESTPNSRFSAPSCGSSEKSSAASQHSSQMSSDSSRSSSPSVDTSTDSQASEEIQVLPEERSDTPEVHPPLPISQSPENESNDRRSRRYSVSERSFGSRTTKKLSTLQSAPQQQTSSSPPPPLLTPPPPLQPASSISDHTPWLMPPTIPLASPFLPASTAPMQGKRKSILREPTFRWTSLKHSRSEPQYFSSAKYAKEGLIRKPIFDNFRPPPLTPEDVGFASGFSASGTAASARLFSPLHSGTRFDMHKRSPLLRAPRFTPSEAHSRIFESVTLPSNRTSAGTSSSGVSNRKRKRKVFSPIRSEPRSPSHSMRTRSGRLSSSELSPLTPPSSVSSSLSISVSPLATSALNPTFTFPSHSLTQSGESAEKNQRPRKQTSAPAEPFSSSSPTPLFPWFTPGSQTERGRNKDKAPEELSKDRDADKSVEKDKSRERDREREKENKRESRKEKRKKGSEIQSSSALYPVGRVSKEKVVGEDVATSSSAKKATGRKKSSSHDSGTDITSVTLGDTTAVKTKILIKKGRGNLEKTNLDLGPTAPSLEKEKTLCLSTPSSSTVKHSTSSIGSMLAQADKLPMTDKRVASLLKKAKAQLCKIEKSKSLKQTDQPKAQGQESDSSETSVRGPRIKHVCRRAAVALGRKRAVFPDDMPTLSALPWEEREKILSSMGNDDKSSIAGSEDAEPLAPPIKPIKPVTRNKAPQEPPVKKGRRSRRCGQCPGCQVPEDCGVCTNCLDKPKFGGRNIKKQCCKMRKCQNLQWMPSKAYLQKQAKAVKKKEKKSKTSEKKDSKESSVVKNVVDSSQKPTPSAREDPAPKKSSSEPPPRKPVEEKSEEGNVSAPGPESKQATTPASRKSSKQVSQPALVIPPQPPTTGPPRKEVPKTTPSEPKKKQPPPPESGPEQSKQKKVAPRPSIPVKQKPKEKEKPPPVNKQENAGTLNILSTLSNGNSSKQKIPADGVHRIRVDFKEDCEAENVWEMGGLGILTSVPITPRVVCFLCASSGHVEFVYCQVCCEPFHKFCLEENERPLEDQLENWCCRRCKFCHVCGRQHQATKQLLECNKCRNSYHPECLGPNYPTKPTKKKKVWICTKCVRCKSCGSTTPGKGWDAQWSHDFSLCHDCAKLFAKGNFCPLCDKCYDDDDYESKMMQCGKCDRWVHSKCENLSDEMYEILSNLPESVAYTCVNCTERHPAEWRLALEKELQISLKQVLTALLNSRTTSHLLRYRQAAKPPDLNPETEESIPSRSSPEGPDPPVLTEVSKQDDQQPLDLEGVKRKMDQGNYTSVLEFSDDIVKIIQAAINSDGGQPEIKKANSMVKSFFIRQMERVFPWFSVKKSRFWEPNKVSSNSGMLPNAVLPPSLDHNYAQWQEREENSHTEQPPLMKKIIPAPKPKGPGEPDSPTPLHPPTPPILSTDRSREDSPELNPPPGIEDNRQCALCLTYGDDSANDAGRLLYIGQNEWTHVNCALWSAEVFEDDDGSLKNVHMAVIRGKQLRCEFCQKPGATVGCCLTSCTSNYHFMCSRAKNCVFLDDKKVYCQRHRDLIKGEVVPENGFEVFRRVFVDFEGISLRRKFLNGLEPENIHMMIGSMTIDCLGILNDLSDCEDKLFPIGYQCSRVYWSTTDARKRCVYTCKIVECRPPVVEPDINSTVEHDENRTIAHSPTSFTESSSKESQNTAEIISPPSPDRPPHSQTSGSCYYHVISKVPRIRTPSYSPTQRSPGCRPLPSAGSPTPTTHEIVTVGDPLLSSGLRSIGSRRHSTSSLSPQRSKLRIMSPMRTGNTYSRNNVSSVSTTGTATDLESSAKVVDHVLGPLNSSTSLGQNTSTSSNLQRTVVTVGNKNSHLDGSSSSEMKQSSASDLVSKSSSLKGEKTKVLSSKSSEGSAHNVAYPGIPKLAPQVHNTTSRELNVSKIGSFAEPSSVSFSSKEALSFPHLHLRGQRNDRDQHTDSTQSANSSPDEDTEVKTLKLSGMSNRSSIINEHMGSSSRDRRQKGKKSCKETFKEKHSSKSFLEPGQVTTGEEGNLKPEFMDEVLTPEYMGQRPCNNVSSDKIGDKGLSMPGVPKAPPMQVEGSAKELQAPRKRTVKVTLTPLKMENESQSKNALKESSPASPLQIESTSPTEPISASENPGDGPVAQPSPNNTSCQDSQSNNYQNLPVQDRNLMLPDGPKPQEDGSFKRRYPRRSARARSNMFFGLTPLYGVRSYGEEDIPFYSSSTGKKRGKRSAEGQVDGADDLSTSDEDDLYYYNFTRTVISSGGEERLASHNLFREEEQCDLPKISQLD
T1 sequence (Q03164 2719-3969 partner limits assumed): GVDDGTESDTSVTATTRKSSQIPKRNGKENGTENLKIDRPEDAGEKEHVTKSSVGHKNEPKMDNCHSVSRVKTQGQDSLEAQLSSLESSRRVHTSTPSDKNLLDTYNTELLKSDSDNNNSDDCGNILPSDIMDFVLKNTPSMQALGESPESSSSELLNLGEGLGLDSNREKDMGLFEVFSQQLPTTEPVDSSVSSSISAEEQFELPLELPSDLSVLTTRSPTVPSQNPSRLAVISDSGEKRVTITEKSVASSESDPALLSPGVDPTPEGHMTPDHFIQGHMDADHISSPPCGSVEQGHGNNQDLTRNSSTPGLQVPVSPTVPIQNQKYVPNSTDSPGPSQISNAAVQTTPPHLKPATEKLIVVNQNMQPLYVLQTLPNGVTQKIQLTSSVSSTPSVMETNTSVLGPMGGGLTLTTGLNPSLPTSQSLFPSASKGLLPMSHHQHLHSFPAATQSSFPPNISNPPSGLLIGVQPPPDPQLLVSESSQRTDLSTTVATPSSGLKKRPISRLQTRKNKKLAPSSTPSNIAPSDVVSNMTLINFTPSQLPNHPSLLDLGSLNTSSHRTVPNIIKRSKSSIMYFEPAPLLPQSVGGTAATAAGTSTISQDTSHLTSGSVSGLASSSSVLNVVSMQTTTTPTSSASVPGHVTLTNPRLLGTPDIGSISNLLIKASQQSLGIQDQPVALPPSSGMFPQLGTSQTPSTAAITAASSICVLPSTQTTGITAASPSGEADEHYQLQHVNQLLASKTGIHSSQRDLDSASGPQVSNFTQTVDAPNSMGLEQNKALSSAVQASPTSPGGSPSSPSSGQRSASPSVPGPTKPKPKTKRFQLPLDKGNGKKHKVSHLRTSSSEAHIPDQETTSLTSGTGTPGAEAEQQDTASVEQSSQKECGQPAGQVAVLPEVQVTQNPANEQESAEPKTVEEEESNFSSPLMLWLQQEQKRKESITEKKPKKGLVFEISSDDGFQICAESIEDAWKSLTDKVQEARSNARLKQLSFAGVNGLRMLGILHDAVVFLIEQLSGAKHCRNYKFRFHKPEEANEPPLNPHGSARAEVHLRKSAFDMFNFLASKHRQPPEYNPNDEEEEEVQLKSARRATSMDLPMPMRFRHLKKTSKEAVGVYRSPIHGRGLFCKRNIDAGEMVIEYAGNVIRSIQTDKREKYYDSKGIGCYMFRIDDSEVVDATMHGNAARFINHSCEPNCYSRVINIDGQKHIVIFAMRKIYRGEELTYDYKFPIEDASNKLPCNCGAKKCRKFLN

In the case of `CCCc1cc2c(N3CCN(C4=NCC(C)(C)S4)CC3)ncnc2s1`, halving of growth in data set [1] (GI50) required 9500 nM. Turning to `Cc1c(CN2CCC(Nc3ncnc4sc(CC(F)(F)F)cc34)CC2)ccc2c1cc(C#N)n2Cc1cn[nH]c1`, the bioavailability – broadly, the share of a dose that reaches the circulation, judged against a reference dose that is usually intravenous – in data set [2] was determined as 73%.

The molecule `Cc1c(CN2CCC(Nc3ncnc4sc(CC(F)(F)F)cc34)CC2)ccc2[nH]c(C#N)cc12` had a bioavailability in data set [2] of 44%. For `NCC(CCN1CC=C(c2ccc(Cl)cc2)CC1)(c1ccccc1)C1CCCC1` (stereo not given), the IC50 (usually the concentration that inhibits the measured activity by half) in data set [3] was 0.83 nM.

In the case of `COC(=O)N[C@H]1CCC[C@@H]1[C@](C#N)(c1cccc(F)c1)C1CCN(CC2CN(c3ccc(S(=O)(=O)C4CN(C(=O)/C=C/CN(C)C)C4)cc3)C2)CC1`, the GI50 (in general, the concentration giving 50% growth inhibition) stood at 2.7 nM in data set [1] and 15.4 nM in data set [4]. For the molecule `CC(C)N(C(=O)c1cc(F)ccc1Oc1cncnc1N1CC2(CCN(C[C@H]3CC[C@H](NS(C)(=O)=O)CC3)CC2)C1)C(C)C`, the GI50 is 17 nM in data set [1] and 13 nM in data set [4]. The same molecule had an IC50 in data set [5] of 40000 nM. With `CNc1nc(NC2CCN(Cc3ccc4c(cc(C#N)n4CC45CC(NC=O)(C4)C5)c3C)CC2)c2cc(CC(F)(F)F)sc2n1`, the GI50 was determined as 7.6 nM in data set [1] and 12.5 nM in data set [4]. In data set [3], this molecule came in with an IC50 of 0.5 nM.

Take `O=c1cccc2n1C[C@@H]1C[C@H]2CN(CC(O)CSCc2ccccc2)C1` (stereo not given in full): the IC50 in data set [5] came out at 40 nM. As to `Clc1ccc2c(NCCN3CCN(CCCCCCCN4CCN(CCNc5ccnc6cc(Cl)ccc56)CC4)CC3)ccnc2c1`, the IC50 in data set [3] came to 4.7 nM.

As for `C[C@@]12CN(CC(O)CCCc3ccccc3)C[C@@](C)(C1)c1cccc(=O)n1C2` (stereo not given in full), in data set [5], the IC50 turned out to be 1 nM.
